Results reported in DBAASP.
In brackets after ≈: the same amount, converted by molar mass. Several values for one entry are separate records, joined by “and”; a condition that tells them apart may be missing. Equal entries are not always repeated.

Experiments:
Experiment in all cases: ≥ marks a high value that may be exact or a test limit, other limits are often not marked, values filed in µg/mL are converted to µM
[1] = tested on: Escherichia coli E423-17
[2] = tested on: Pseudomonas aeruginosa ATCC 19660
[3] = tested on: Pseudomonas aeruginosa PAO1
[4] = tested on: Pseudomonas aeruginosa
[5] = tested on: Staphylococcus aureus USA 300 LAC
[6] = tested on: Candida albicans ATCC 90028
[7] = tested on: Enterobacter cloacae HNTCC 53001
[8] = tested on: Enterococcus faecalis ATCC 29212
[9] = tested on: Escherichia coli ATCC 25922
[10] = tested on: Klebsiella pneumoniae KK3 9904
[11] = tested on: Pseudomonas aeruginosa ATCC 27853
[12] = tested on: Staphylococcus aureus NCTC 8325
[13] = tested on: Staphylococcus aureus T7/20
[14] = tested on: Staphylococcus epidermidis RP62A
[15] = tested on: Acinetobacter baumannii ATCC 19606
[16] = tested on: Bordetella bronchiseptica CUN 11844-99
[17] = tested on: Pseudomonas aeruginosa CUN 4158-02
[18] = tested on: Staphylococcus aureus ATCC 25923
[19] = tested on: Staphylococcus aureus ATCC 43300
[20] = tested on: Staphylococcus aureus CUN 3792-99
[21] = tested on: Stenotrophomonas maltophilia CUN 3998-00
[22] = tested on: Bacillus subtilis 168
[23] = tested on: Candida glabrata CG196/98IDE
[24] = tested on: Candida krusei CK802/97
[25] = tested on: Escherichia coli B
[26] = tested on: Staphylococcus aureus
[27] = tested on: Bacillus cereus ATCC 11778
[28] = tested on: Bacillus subtilis CCT 2471
[29] = tested on: Bacillus thuringiensis
[30] = tested on: Candida albicans ATCC 18804
[31] = tested on: Escherichia coli CCT 1371
[32] = tested on: Klebsiella aerogenes ATCC 13048
[33] = tested on: Proteus mirabilis
[34] = tested on: Pseudomonas aeruginosa ATCC 15442
[35] = tested on: Salmonella enterica subsp. enterica serovar Typhimurium ATCC 14028
[36] = tested on: Staphylococcus aureus ATCC 25293
[37] = tested on: Staphylococcus aureus ATCC 29213
[38] = tested on: Staphylococcus aureus ATCC 6538
[39] = tested on: Staphylococcus saprophyticus
[40] = tested on: Bacillus subtilis ATCC 6633
[41] = tested on: Klebsiella pneumoniae ATCC 10031
[42] = tested on: Micrococcus luteus ATCC 10240
[43] = tested on: Shigella dysenteriae ATCC 9752
[44] = tested on: Staphylococcus aureus ATCC 6538P
[45] = tested on: Staphylococcus aureus TK784
[46] = tested on: Staphylococcus epidermidis ATCC 12228

Question: What does the source list for `CC[C@H](C)[C@H](NC(=O)[C@H](CCCNC(=N)N)NC(=O)[C@H](CCC(N)=O)NC(=O)[C@@H](NC(=O)[C@@H](NC(=O)[C@H](CCCNC(=N)N)NC(=O)[C@H](CCCCN)NC(=O)[C@@H](N)Cc1ccccc1)[C@@H](C)CC)C(C)C)C(=O)N[C@@H](CCCCN)C(=O)N[C@@H](CC(=O)O)C(=O)N[C@@H](Cc1ccccc1)C(=O)N[C@@H](CC(C)C)C(=O)N[C@@H](CCCNC(=N)N)C(=O)N[C@@H](CC(N)=O)C(=O)N[C@@H](CC(C)C)C(=O)N[C@H](C=O)C(C)C` [FKRIVQRIKDFLRNLV]?
Answer: MIC [1]: 5.66 µM and 4 µM; MIC [2]: ≥ 97.7 µM; MIC [3]: 48.9 µM and 97.7 µM; MIC [4]: 48.9 µM and 97.7 µM; MIC [5]: 4 µM (≈ 8.12 µg/mL)

Question: With `CSCC[C@H](NC(=O)[C@@H](NC(=O)[C@@H](NC(=O)[C@H](CC(C)C)NC(=O)[C@@H]1CCCN1C(=O)[C@H](CC(C)C)NC(=O)[C@@H](N)Cc1ccccc1)C(C)C)[C@@H](C)O)C(=O)N[C@@H](CC(C)C)C(=O)N[C@@H](CC(C)C)C(=O)NCC(=O)N[C@@H](CCCCN)C(=O)N[C@@H](CC(C)C)C(=O)N[C@@H](Cc1ccccc1)C(N)=O` [FLPLVTMLLGKLF] as the compound, how does the MIC [6] read?
Answer: The MIC was ≥ 160 µM.

Question: What about the MIC [7] of the same compound?
Answer: The MIC was ≥ 40 µM.

Question: What about the MIC [8] of the same compound?
Answer: The MIC was 40 µM (≈ 59.6 µg/mL).

Question: And the MIC [9]?
Answer: Its MIC is > 160 µM.

Question: What about the MIC [10] of the same compound?
Answer: Its MIC is ≥ 80 µM.

Question: What about the MIC [11] of the same compound?
Answer: The MIC was 160 µM (≈ 239 µg/mL).

Question: And the MIC [12]?
Answer: The MIC was 5 µM (≈ 7.45 µg/mL).

Question: And the MIC [13]?
Answer: The MIC was 10 µM (≈ 14.9 µg/mL).

Question: And the MIC [14]?
Answer: The MIC was 10 µM (≈ 14.9 µg/mL).

Question: Which results are given for `CC[C@H](C)[C@H](NC(=O)[C@H](CO)NC(=O)[C@H](CC(C)C)NC(=O)[C@@H](N)Cc1ccccc1)C(=O)N[C@H](C(=O)N[C@@H](C)C(=O)N[C@@H](CCCCN)C(=O)N[C@H](C(=O)N[C@@H](CC(C)C)C(=O)NCC(=O)N[C@@H](CO)C(=O)N[C@@H](CC(C)C)C(=O)N[C@@H](Cc1ccccc1)C(N)=O)C(C)C)[C@@H](C)CC` [FLSIIAKVLGSLF]?
Answer: MIC [6]: ≥ 160 µM; MIC [7]: ≥ 160 µM; MIC [8]: 20 µM (≈ 28.1 µg/mL); MIC [9]: > 160 µM; MIC [10]: ≥ 160 µM; MIC [11]: > 160 µM; MIC [12]: 5 µM (≈ 7.03 µg/mL); MIC [13]: 10 µM (≈ 14.1 µg/mL); MIC [14]: 5 µM (≈ 7.03 µg/mL)

Question: What does the source list for `NCCCC[C@H](NC(=O)CNC(=O)[C@H](CCCCN)NC(=O)[C@H](Cc1ccccc1)NC(=O)[C@H](CCCCN)NC(=O)[C@H](Cc1c[nH]c2ccccc12)NC(=O)[C@H](CCCN=C(N)N)NC(=O)[C@H](Cc1ccccc1)NC(=O)[C@H](CCCN=C(N)N)NC(=O)[C@H](CCCN=C(N)N)NC(=O)[C@H](Cc1ccc(O)cc1)NC(=O)[C@H](CCCCN)NC(=O)[C@H](CCCCN)NC(=O)[C@H](CS)NC(=O)CN)C(=O)N[C@@H](Cc1ccccc1)C(=O)N[C@@H](Cc1c[nH]c2ccccc12)C(=O)N[C@@H](Cc1ccccc1)C(=O)N[C@@H](Cc1c[nH]c2ccccc12)C(N)=O` [GCKKYRRFRWKFKGKFWFW]?
Answer: MIC [15]: 24.1 µM (≈ 64 µg/mL); MIC [16]: 24.1 µM (≈ 64 µg/mL); MIC [9]: 24.1 µM (≈ 64 µg/mL); MIC [11]: 24.1 µM (≈ 64 µg/mL); MIC [17]: ≥ 48.2 µM; MIC [18]: 24.1 µM (≈ 64 µg/mL); MIC [19]: 12.1 µM (≈ 32 µg/mL); MIC [20]: 24.1 µM (≈ 64 µg/mL); MIC [21]: ≥ 48.2 µM

Question: With `CC[C@H](C)[C@H](NC(=O)[C@H](CC(C)C)NC(=O)[C@H](CCCCN)NC(=O)CNC(=O)[C@H](CC(C)C)NC(=O)[C@@H](NC(=O)[C@H](CCCCN)NC(=O)[C@H](CCCCN)NC(=O)[C@H](Cc1c[nH]c2ccccc12)NC(=O)[C@H](CCSC)NC(=O)CN)[C@@H](C)CC)C(=O)N[C@@H](CCCN=C(N)N)C(N)=O` [GMWKKILGKLIR] as the compound, how does the MIC [22] read?
Answer: Its MIC is 0.8 µM (≈ 1.15 µg/mL).

Question: What about the MIC [23] of the same compound?
Answer: Its MIC is ≥ 87 µM.

Question: What about the MIC [24] of the same compound?
Answer: Its MIC is 28 µM and 13 µM.

Question: What about the MIC [25] of the same compound?
Answer: The MIC was 2.3 µM (≈ 3.32 µg/mL).

Question: And the MIC [4]?
Answer: Its MIC is 13.1 µM (≈ 18.9 µg/mL).

Question: What about the MIC [26] of the same compound?
Answer: The MIC was 15 µM (≈ 21.6 µg/mL).

Question: Which MIC [27] does the source give for `CC[C@H](C)[C@H](N)C(=O)N[C@@H](Cc1ccccc1)C(=O)NCC(=O)N[C@@H](C)C(=O)N[C@H](C(=O)N[C@@H](Cc1c[nH]c2ccccc12)C(=O)N[C@@H](CC(N)=O)C(=O)NCC(=O)N[C@H](C(=O)N[C@@H](CCCCN)C(=O)N[C@@H](CO)C(=O)N[C@@H](CC(C)C)C(=O)N[C@@H](Cc1ccccc1)C(=O)O)[C@@H](C)CC)[C@@H](C)CC` [IFGAIWNGIKSLF] here?
Answer: The MIC was ≥ 68.2 µM.

Question: And the MIC [28]?
Answer: The MIC was 6.8 µM (≈ 9.97 µg/mL).

Question: And the MIC [29]?
Answer: Its MIC is 17.1 µM (≈ 25.1 µg/mL).

Question: What about the MIC [30] of the same compound?
Answer: The MIC was 12.5 µM (≈ 18.3 µg/mL).

Question: And the MIC [31]?
Answer: The MIC was 3.4 µM (≈ 4.98 µg/mL).

Question: What about the MIC [32] of the same compound?
Answer: Its MIC is ≥ 68.2 µM.

Question: What about the MIC [33] of the same compound?
Answer: The MIC was ≥ 150 µM.

Question: And the MIC [34]?
Answer: Its MIC is ≥ 150 µM.

Question: What about the MIC [11] of the same compound?
Answer: Its MIC is 68.3 µM (≈ 100 µg/mL).

Question: What about the MIC [35] of the same compound?
Answer: The MIC was 68.2 µM (≈ 100 µg/mL).

Question: And the MIC [36]?
Answer: The MIC was 0.7 µM (≈ 1.03 µg/mL).

Question: What about the MIC [37] of the same compound?
Answer: Its MIC is 34.1 µM (≈ 50 µg/mL).

Question: What about the MIC [38] of the same compound?
Answer: The MIC was 3.4 µM (≈ 4.98 µg/mL).

Question: And the MIC [39]?
Answer: Its MIC is 0.7 µM (≈ 1.03 µg/mL).

Question: Which results are given for `CC(C)C[C@H](NC(=O)[C@H](CC(C)C)NC(=O)[C@H](CCCCN)NC(=O)[C@H](CCCCN)NC(=O)[C@H](CC(C)C)NC(=O)[C@H](CC(C)C)NC(=O)[C@H](CCCCN)NC(=O)[C@H](CCCCN)NC(=O)[C@@H](N)CC(C)C)C(=O)N[C@@H](CCCCN)C(=O)N[C@@H](Cc1c[nH]c2ccccc12)C(N)=O` [LKKLLKKLLKW]?
Answer: MIC [40]: 1.42 µM (≈ 2 µg/mL); MIC [9]: 2.84 µM (≈ 4 µg/mL); MIC [41]: 2.84 µM (≈ 4 µg/mL); MIC [42]: 2.84 µM (≈ 4 µg/mL); MIC [11]: 2.84 µM (≈ 4 µg/mL); MIC [35]: 2.84 µM (≈ 4 µg/mL); MIC [43]: 1.42 µM (≈ 2 µg/mL); MIC [44]: 1.42 µM (≈ 2 µg/mL); MIC [45]: 11.3 µM (≈ 16 µg/mL); MIC [46]: 1.42 µM (≈ 2 µg/mL)
